In patent US11524968B2, “Heterocyclic compound as a protein kinase inhibitor” (HK inno.N Corporation, priority 2017, dated 2022) one finds IC50 data, which are given here for 31 compounds.

The structures appear in SMILES notation.

Chain of JAK1 (P23458 whole entry): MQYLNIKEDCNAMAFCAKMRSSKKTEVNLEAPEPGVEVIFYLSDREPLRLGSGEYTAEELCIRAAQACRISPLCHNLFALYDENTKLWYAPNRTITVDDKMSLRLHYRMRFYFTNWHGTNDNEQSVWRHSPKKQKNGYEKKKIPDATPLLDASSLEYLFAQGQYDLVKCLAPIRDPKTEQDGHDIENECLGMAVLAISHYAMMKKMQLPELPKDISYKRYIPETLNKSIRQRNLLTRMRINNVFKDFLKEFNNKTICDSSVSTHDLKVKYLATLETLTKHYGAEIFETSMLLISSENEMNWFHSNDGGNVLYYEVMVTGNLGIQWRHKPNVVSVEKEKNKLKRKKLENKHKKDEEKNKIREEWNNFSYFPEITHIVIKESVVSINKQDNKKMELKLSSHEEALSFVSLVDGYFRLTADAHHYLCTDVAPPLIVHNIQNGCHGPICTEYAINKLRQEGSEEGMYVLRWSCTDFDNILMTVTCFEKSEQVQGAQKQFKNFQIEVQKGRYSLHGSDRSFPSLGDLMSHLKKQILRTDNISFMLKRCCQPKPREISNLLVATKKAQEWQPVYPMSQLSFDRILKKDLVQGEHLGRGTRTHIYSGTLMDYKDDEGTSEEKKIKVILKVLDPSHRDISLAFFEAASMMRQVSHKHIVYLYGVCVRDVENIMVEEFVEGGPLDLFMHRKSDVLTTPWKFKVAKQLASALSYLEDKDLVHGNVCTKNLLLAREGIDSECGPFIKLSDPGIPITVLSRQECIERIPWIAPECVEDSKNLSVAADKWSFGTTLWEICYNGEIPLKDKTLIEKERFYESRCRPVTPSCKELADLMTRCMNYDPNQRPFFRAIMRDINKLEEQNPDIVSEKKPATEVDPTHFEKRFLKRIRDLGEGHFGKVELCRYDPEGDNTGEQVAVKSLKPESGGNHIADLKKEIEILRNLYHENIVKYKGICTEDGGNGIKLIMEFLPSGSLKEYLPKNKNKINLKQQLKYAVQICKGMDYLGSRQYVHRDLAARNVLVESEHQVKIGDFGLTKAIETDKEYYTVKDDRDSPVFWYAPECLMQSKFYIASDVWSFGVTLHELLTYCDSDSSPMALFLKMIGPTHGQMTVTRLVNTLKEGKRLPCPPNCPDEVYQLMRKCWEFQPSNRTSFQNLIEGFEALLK

The assay concerns the target JAK1 (Homo sapiens (Human), UniProt P23458). Nature of the assay: Analysis of JAK1 activity inhibition ability (ADP-Glo Kinase Assay). The format is biochemical. The conditions noted are these: JAK1 enzyme, ADP-Glo luminescence, ATP 250 uM, IRS-itide substrate, 30° C. 40 minutes; read-out: IC50. An outline of the steps:
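ADP-Glo luminescence read-out of ADP production, with IC50 taken as the concentration halving JAK1 activity relative to control. Enzyme was incubated 40 min at 30 °C with compound, IRS-itide (40 ng/mL) and ATP (250 uM), concentrations as prepared in pH 7.5 Tris-HCl/MgCl2/BSA/DTT buffer.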
Turning to `CC1(C)CN(S(=O)(=O)CCCC#N)CC=C1c1cc(NC(=O)C2CC2)nc2[nH]ccc12` [Example 180, N-(4-(1-((3-cyanopropyl)sulfonyl)-3,3-dimethyl-1,2,3,6-tetrahydropyridin-4-yl)-1H-pyrrolo[2,3-b]pyridin-6-yl)cyclopropanecarboxamide], the IC50 (in general, the concentration that inhibits the measured activity by half) was 20 to 200 nM.

Regarding `CC1CN(C(=O)c2cccc(Nc3ccccc3)c2)CC=C1c1cc(NC(=O)C2CC2)nc2[nH]ccc12` (stereo not shown) [Example 316, N-(4-(3-methyl-1-(3-(phenylamino)benzoyl)-1,2,3,6-tetrahydropyridin-4-yl)-1H-pyrrolo[2,3-b]pyridin-6-yl)cyclopropanecarboxamide], the IC50 was above 200 nM.

As for `O=C(Nc1cc(-c2ccc(NS(=O)(=O)CF)cc2)c2cc[nH]c2n1)C1CC1` [Example 49, N-(4-(4-((fluoromethyl)sulfonamido)phenyl)-1H-pyrrolo[2,3-b]pyridin-6-yl)cyclopropanecarboxamide], the IC50 was in the range of 20 to 200 nM.

In the case of `COc1ccc(CC(=O)N2CC=C(c3cc(NC(=O)C4CC4)nc4[nH]ccc34)C(C)C2)cc1` (stereo not shown) [Example 341, N-(4-(1-(2-(4-methoxyphenyl)acetyl)-3-methyl-1,2,3,6-tetrahydropyridin-4-yl)-1H-pyrrolo[2,3-b]pyridin-6-yl)cyclopropanecarboxamide], the IC50 was above 200 nM.

Turning to `CCCCS(=O)(=O)Nc1ccc(-c2cc(NC(=O)C3CC3)nc3[nH]ccc23)cc1` [Example 6, N-(4-(4-(butylsulfonamido)phenyl)-1H-pyrrolo[2,3-b]pyridin-6-yl)cyclopropanecarboxamide], the IC50 is below 20 nM.

As to `N#CC1(C(=O)N2CC=C(c3cc(NC(=O)C4CC4)nc4[nH]ccc34)C2)CC1` [Example 430, N-(4-(1-(1-cyanocyclopropane-1-carbonyl)-2,5-dihydro-1H-pyrrol-3-yl)-1H-pyrrolo[2,3-b]pyridin-6-yl)cyclopropanecarboxamide], the IC50 is above 200 nM.

As for `O=C(Nc1ccc(-c2nc(NC(=O)C3CC3)nc3[nH]ccc23)cc1)NC1CC1` [Example 437, N-(4-(4-(3-cyclopropylureido)phenyl)-7H-pyrrolo[2,3-d]pyrimidin-2-yl)cyclopropanecarboxamide], the 50% inhibitory concentration (IC50) is above 200 nM.

With `O=C(Nc1cc(-c2ccc(NS(=O)(=O)CC3CCOCC3)cc2)c2cc[nH]c2n1)C1CC1` [Example 55, N-(4-(4-(((tetrahydro-2H-pyran-4-yl)methyl)sulfonamido)phenyl)-1H-pyrrolo[2,3-b]pyridin-6-yl)cyclopropanecarboxamide], the IC50 was below 20 nM.

For the compound `O=C(Nc1cc(-c2ccc(NS(=O)(=O)c3ccc(F)c(F)c3)cc2)c2cc[nH]c2n1)C1CC1` [Example 2, N-(4-(4-((3,4-difluorophenyl)sulfonamido)phenyl)-1H-pyrrolo[2,3-b]pyridin-6-yl)cyclopropanecarboxamide], the IC50 was below 20 nM.

Regarding `CC(C)(C)OC(=O)N[C@H]1CCN(c2nc(NC(=O)C3CC3)nc3[nH]ccc23)C1` [Example 696, tert-butyl (S)-(1-(2-(cyclopropanecarboxamido)-7H-pyrrolo[2,3-d]pyrimidin-4-yl)pyrrolidin-3-yl)carbamate], the IC50 was above 200 nM.

For the compound `CCCCNC(=O)N1C2C=C(c3cc(NC(=O)C4CC4)nc4[nH]ccc34)CC1CC2` (stereo not shown) [Example 449, N-butyl-3-(6-(cyclopropanecarboxamido)-1H-pyrrolo[2,3-b]pyridin-4-yl)-8-azabicyclo[3.2.1]oct-2-ene-8-carboxamide], the IC50 fell in the range of 20 to 200 nM.

As to `CC1CN(C(=O)c2cc(F)cc(F)c2)CC=C1c1cc(NC(=O)C2CC2)nc2[nH]ccc12` (stereo not shown) [Example 358, N-(4-(1-(3,5-difluorobenzoyl)-3-methyl-1,2,3,6-tetrahydropyridin-4-yl)-1H-pyrrolo[2,3-b]pyridin-6-yl)cyclopropanecarboxamide], the IC50 was in the range of 20 to 200 nM.

Consider `O=C(Nc1cc(C2=CCC(NC3CCN(C(=O)c4ccnc(F)c4)CC3)CC2)c2cc[nH]c2n1)C1CC1` (stereo not shown) [Example 493, N-(4-(4-((1-(2-fluoroisonicotinoyl)piperidin-4-yl)amino)cyclohex-1-en-1-yl)-1H-pyrrolo[2,3-b]pyridin-6-yl)cyclopropanecarboxamide], for which the IC50 was in the range of 20 to 200 nM.

Take `CCCCS(=O)(=O)N1CC(n2cc(-c3cc(NC(=O)C4CC4)nc4[nH]ccc34)cn2)C1` [Example 602, N-(4-(1-(1-(butylsulfonyl)azetidin-3-yl)-1H-pyrazol-4-yl)-1H-pyrrolo[2,3-b]pyridin-6-yl)cyclopropanecarboxamide]: the IC50 is above 200 nM.

Turning to `CCS(=O)(=O)Nc1ccc(-c2nc(Nc3ccccc3)nc3[nH]ccc23)cc1` [Example 720, N-(4-(2-(phenylamino)-7H-pyrrolo[2,3-d]pyrimidin-4-yl)phenyl)ethanesulfonamide], the IC50 was in the range of 20 to 200 nM.

Take `CC1CN(C(=O)C(C#N)Cc2ccccc2)CC=C1c1cc(NC(=O)C2CC2)nc2[nH]ccc12` (stereo not shown) [Example 360, N-(4-(1-(2-cyano-3-phenylpropanoyl)-3-methyl-1,2,3,6-tetrahydropyridin-4-yl)-1H-pyrrolo[2,3-b]pyridin-6-yl)cyclopropanecarboxamide]: the concentration for half-maximal inhibition (IC50) lay within 20 to 200 nM.

As for `CCS(=O)(=O)Nc1ccc(-c2cc(NC(=O)C3CC3)nc3[nH]ccc23)c(C)c1F` [Example 101, N-(4-(4-(ethylsulfonamido)-3-fluoro-2-methylphenyl)-1H-pyrrolo[2,3-b]pyridin-6-yl)cyclopropanecarboxamide], the IC50 was 20 to 200 nM.

For `Cc1cc(C(=O)N2CC=C(c3cc(NC(=O)C4CC4)nc4[nH]ccc34)C(C)C2)cc(Cl)n1` (stereo not shown) [Example 375, N-(4-(1-(2-chloro-6-methylisonicotinoyl)-3-methyl-1,2,3,6-tetrahydropyridin-4-yl)-1H-pyrrolo[2,3-b]pyridin-6-yl)cyclopropanecarboxamide], the IC50 lay in the range of 20 to 200 nM.

For `O=C(Nc1cc(-c2ccc(NS(=O)(=O)CC3CCCCC3)cc2)c2cc[nH]c2n1)C1CC1` [Example 47, N-(4-(4-((cyclohexylmethyl)sulfonamido)phenyl)-1H-pyrrolo[2,3-b]pyridin-6-yl)cyclopropanecarboxamide], the IC50 is below 20 nM.

As to `O=C(Nc1cc(C2=CCN(CCN3CCOCC3)C2)c2cc[nH]c2n1)C1CC1` [Example 484, N-(4-(1-(2-morpholinoethyl)-2,5-dihydro-1H-pyrrol-3-yl)-1H-pyrrolo[2,3-b]pyridin-6-yl)cyclopropanecarboxamide], the IC50 was above 200 nM.

Regarding `CCC1C=C(c2cc(NC(=O)C3CC3)nc3[nH]ccc23)CC(CC)N1C(=O)CC#N` (stereo not shown) [Example 409, N-(4-(1-(2-cyanoacetyl)-2,6-diethyl-1,2,3,6-tetrahydropyridin-4-yl)-1H-pyrrolo[2,3-b]pyridin-6-yl)cyclopropanecarboxamide], the IC50 is below 20 nM.

As to `CCNC(=S)N1CC=C(c2cc(NC(=O)C3CC3)nc3[nH]ccc23)CC1` [Example 468, N-(4-(1-(ethylcarbamothioyl)-1,2,3,6-tetrahydropyridin-4-yl)-1H-pyrrolo[2,3-b]pyridin-6-yl)cyclopropanecarboxamide], the IC50 fell in the range of 20 to 200 nM.

In the case of `O=C(Nc1cc(-c2ccc(NS(=O)(=O)CC3CC3)cc2)c2cc[nH]c2n1)C1CC1` [Example 46, N-(4-(4-((cyclopropylmethyl)sulfonamido)phenyl)-1H-pyrrolo[2,3-b]pyridin-6-yl)cyclopropanecarboxamide], the half-maximal inhibitory concentration (IC50) was below 20 nM.

For `CC1(C)CC(c2cc(NC(=O)C3CC3)nc3[nH]ccc23)=CCN1C(=O)c1ccnc(F)c1` [Example 385, N-(4-(1-(2-fluoroisonicotinoyl)-2,2-dimethyl-1,2,3,6-tetrahydropyridin-4-yl)-1H-pyrrolo[2,3-b]pyridin-6-yl)cyclopropanecarboxamide], the half-maximal inhibitory concentration (IC50) is below 20 nM.

As for `N#CCN1CCC(n2cc(-c3cc(NC(=O)C4CC4)nc4[nH]ccc34)cn2)CC1` [Example 611, N-(4-(1-(1-(cyanomethyl)piperidin-4-yl)-1H-pyrazol-4-yl)-1H-pyrrolo[2,3-b]pyridin-6-yl)cyclopropanecarboxamide], the IC50 lay in the range of 20 to 200 nM.

Consider `CC1CN(C(=O)OC(C)(C)C)CC=C1c1cc(NC(=O)C2CC2)nc2[nH]ccc12` (stereo not shown) [Example 456, tert-butyl 4-(6-(cyclopropanecarboxamido)-1H-pyrrolo[2,3-b]pyridin-4-yl)-3-methyl-3,6-dihydropyridine-1 (2H)-carboxylate], for which the IC50 is above 200 nM.

`COCCN(C)S(=O)(=O)Nc1ccc(-c2cc(NC(=O)C3CC3)nc3[nH]ccc23)cc1` [Example 223, N-(4-(4-((N-(2-methoxyethyl)-N-methylsulfamoyl)amino)phenyl)-1H-pyrrolo[2,3-b]pyridin-6-yl)cyclopropanecarboxamide]: the IC50 was in the range of 20 to 200 nM.

Turning to `O=C(Nc1cc(-c2ccc(NC3CCN(C(=O)NCC(F)(F)F)CC3)cc2)c2cc[nH]c2n1)C1CC1` [Example 512, 4-((4-(6-(cyclopropanecarboxamido)-1H-pyrrolo[2,3-b]pyridin-4-yl)phenyl)amino)-N-(2,2,2-trifluoroethyl)piperidine-1-carboxamide], the IC50 was in the range of 20 to 200 nM.

Consider `CCCS(=O)(=O)Nc1ccc(-c2cc(NC(=O)C3CC3)nc3[nH]ccc23)cc1` [Example 5, N-(4-(4-(propylsulfonamido)phenyl)-1H-pyrrolo[2,3-b]pyridin-6-yl)cyclopropanecarboxamide], for which the IC50 is below 20 nM.

For `CC1CN(C(=O)c2ccc3cc[nH]c3c2)CC=C1c1cc(NC(=O)C2CC2)nc2[nH]ccc12` (stereo not shown) [Example 327, N-(4-(1-(1H-indole-6-carbonyl)-3-methyl-1,2,3,6-tetrahydropyridin-4-yl)-1H-pyrrolo[2,3-b]pyridin-6-yl)cyclopropanecarboxamide], the IC50 was 20 to 200 nM.

For `N#CCCn1ccc(-c2cc(NC(=O)C3CC3)nc3[nH]ccc23)c1` [Example 483, N-(4-(1-(2-cyanoethyl)-1H-pyrrol-3-yl)-1H-pyrrolo[2,3-b]pyridin-6-yl)cyclopropanecarboxamide], the IC50 was below 20 nM.
